What all share (assay type): functional, cell-based
The target of series [1] is T1, Solute carrier organic anion transporter family member 1A1 (Rattus norvegicus, UniProt P46720).
T1 sequence (P46720 whole entry): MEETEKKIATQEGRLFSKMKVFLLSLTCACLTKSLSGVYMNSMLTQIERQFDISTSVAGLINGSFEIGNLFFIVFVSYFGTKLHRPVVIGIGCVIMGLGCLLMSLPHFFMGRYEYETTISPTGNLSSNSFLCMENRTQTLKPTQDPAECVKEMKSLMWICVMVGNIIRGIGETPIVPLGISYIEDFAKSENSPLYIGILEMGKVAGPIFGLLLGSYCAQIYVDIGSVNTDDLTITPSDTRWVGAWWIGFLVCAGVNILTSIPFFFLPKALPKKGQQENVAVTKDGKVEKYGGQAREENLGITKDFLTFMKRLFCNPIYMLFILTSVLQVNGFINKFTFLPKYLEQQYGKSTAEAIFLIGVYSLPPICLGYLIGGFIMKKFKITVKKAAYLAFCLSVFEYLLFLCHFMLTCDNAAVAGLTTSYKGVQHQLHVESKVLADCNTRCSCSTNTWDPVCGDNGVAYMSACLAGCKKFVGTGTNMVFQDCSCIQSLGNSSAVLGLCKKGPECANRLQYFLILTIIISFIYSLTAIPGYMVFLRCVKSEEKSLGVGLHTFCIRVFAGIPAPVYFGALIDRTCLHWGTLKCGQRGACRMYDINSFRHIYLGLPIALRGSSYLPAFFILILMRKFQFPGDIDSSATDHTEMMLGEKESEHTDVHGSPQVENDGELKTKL
In words: TP_TRANSPORTER: uptake of Glycotrihydroxycoprostanoic acid at 20 u M in Oatp1-expressing HeLa cells. The conditions noted are these: human, 20 µM.

The target of series [2] is T1, Solute carrier organic anion transporter family member 1A1. Description: TP_TRANSPORTER: uptake of Bromosulfophthalein at 1 u M in Oatp1-expressing HeLa cells. As to conditions: human, 1 µM.
Series [3] has the same target. Description: TP_TRANSPORTER: uptake of 23-Nor-cholate at 20 u M in Oatp1-expressing HeLa cells. As to conditions: human, 20 µM.
The target is the same in series [4]. In words: TP_TRANSPORTER: uptake of Deoxycholate at 1 uM in Oatp1-expressing HeLa cells. As to conditions: human.
For series [5], the target named is T2, Hepatic sodium/bile acid cotransporter (Rattus norvegicus, UniProt P26435).
T2 sequence (P26435 whole entry): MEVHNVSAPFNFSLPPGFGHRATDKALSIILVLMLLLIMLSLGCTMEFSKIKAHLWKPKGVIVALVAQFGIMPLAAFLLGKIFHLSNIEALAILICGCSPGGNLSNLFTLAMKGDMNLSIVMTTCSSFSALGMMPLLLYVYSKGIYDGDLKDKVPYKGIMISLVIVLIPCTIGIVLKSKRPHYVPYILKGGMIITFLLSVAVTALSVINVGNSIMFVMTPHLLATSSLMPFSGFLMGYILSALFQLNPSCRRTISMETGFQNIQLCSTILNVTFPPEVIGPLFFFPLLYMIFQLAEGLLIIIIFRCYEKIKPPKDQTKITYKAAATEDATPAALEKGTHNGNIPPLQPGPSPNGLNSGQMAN
In words: TP_TRANSPORTER: uptake of Deoxycholate at a concentration of 1 u M in NTCP-expressing HeLa cells. As to conditions: human, 1 µM.

Series [6] has as its target T1, Solute carrier organic anion transporter family member 1A1. Description: TP_TRANSPORTER: uptake of Lagodeoxycholate at 1 uM in Oatp1-expressing HeLa cells. The conditions noted are these: human.
Series [7] concerns the target T2, Hepatic sodium/bile acid cotransporter. Description: TP_TRANSPORTER: uptake of Lagodeoxycholate at a concentration of 1 u M in NTCP-expressing HeLa cells. As to conditions: human, 1 µM.
Series [8] deals with T1, Solute carrier organic anion transporter family member 1A1. In words: TP_TRANSPORTER: uptake of Glycochenodeoxycholate at 20 uM in Oatp1-expressing HeLa cells. The conditions noted are these: human.
The target is the same in series [9]. In words: TP_TRANSPORTER: uptake of Trihydroxycoprostanoic acid at 20 uM in Oatp1-expressing HeLa cells. As to conditions: human.
Series [10] shares this target. Description: TP_TRANSPORTER: uptake of Taurochenodeoxycholate at 20 u M in Oatp1-expressing HeLa cells. The conditions noted are these: human, 20 µM.
The target is the same in series [11]. In words: TP_TRANSPORTER: uptake of Tauromurocholate at 1 u M in Oatp1-expressing HeLa cells. The conditions noted are these: human, 1 µM.
Series [12] concerns the target T2, Hepatic sodium/bile acid cotransporter. Description: TP_TRANSPORTER: uptake of Tauromurocholate at a concentration of 1 u M in NTCP-expressing HeLa cells. The conditions noted are these: human, 1 µM.
The target of series [13] is T1, Solute carrier organic anion transporter family member 1A1. In words: TP_TRANSPORTER: uptake of Glycoursodeoxycholate at 20 u M in Oatp1-expressing HeLa cells. As to conditions: human, 20 µM.
For series [14] the target is unchanged. Description: TP_TRANSPORTER: uptake of Tauroursodeoxycholate at 20 u M in Oatp1-expressing HeLa cells. As to conditions: human, 20 µM.
For series [15] the target is unchanged. In words: TP_TRANSPORTER: uptake of Tauro-23-norcholate at 20 u M in Oatp1-expressing HeLa cells. The conditions noted are these: human, 20 µM.
For series [16], the target named is T2, Hepatic sodium/bile acid cotransporter. In words: TP_TRANSPORTER: uptake of Glycocholate at a concentration of 4 u M in NTCP-expressing HeLa cells. The conditions noted are these: human, 4 µM.
In series [17] the target is T1, Solute carrier organic anion transporter family member 1A1. Description: TP_TRANSPORTER: uptake of Glycocholate at 4 u M in Oatp1-expressing HeLa cells. The conditions noted are these: human, 4 µM.
Series [18] has the same target. In words: TP_TRANSPORTER: uptake of Glycocholate at 20 u M in Oatp1-expressing HeLa cells. The conditions noted are these: human, 20 µM.
Series [19] shares this target. In words: TP_TRANSPORTER: uptake of Taurotrihydroxycoprostanoic acid at 20 u M in Oatp1-expressing HeLa cells. The conditions noted are these: human, 20 µM.
Series [20] concerns the target T2, Hepatic sodium/bile acid cotransporter. In words: TP_TRANSPORTER: uptake of Taurolagodeoxycholate at a concentration of 1 u M in NTCP-expressing HeLa cells. As to conditions: human, 1 µM.
Series [21] concerns the target T1, Solute carrier organic anion transporter family member 1A1. In words: TP_TRANSPORTER: uptake of Taurolagodeoxycholate at 1 u M in Oatp1-expressing HeLa cells. As to conditions: human, 1 µM.
The target in series [22] is T2, Hepatic sodium/bile acid cotransporter. Description: TP_TRANSPORTER: uptake of Hyodeoxycholate at a concentration of 1 u M in NTCP-expressing HeLa cells. As to conditions: human, 1 µM.
For series [23], the target named is T1, Solute carrier organic anion transporter family member 1A1. Description: TP_TRANSPORTER: uptake of Glyco-23-norcholate at 20 uM in Oatp1-expressing HeLa cells. The conditions noted are these: human.
Series [24] has the same target. Description: TP_TRANSPORTER: uptake of Chenodeoxycholate at 20 uM in Oatp1-expressing HeLa cells. The conditions noted are these: human.
For series [25] the target is unchanged. Description: TP_TRANSPORTER: uptake of Ursodeoxycholate at 20 uM in Oatp1-expressing HeLa cells. As to conditions: human.
The target of series [26] is T2, Hepatic sodium/bile acid cotransporter. In words: TP_TRANSPORTER: uptake of Muricholate at a concentration of 1 u M in NTCP-expressing HeLa cells. As to conditions: human, 1 µM.
The target in series [27] is T1, Solute carrier organic anion transporter family member 1A1. Description: TP_TRANSPORTER: uptake of Muricholate at 1 u M in Oatp1-expressing HeLa cells. As to conditions: human, 1 µM.

In the case of `CC(CC(=O)NCC(=O)O)[C@H]1CC[C@@H]2C1[C@@H](O)C[C@@H]1C3CC[C@@H](O)CC3C[C@@H](O)[C@H]12` (some centres not stated) [GLYCOTRIHYDROXYCOPROSTANOIC ACID], the Activity entry in series [1] is “substrate [+]”.

For `O=C1OC(c2ccc(O)c(S(=O)(=O)[O-])c2)(c2ccc(O)c(S(=O)(=O)[O-])c2)c2c(Br)c(Br)c(Br)c(Br)c21.[Na+].[Na+]` [SULFOBROMOPHTHALEIN SODIUM], the Activity result in series [2] is “substrate [+]”.

As for `C[C@H](CC(=O)O)[C@H]1CC[C@H]2[C@@H]3[C@H](O)C[C@@H]4C[C@H](O)CC[C@]4(C)[C@H]3C[C@H](O)[C@]12C`, the Activity entry in [3] was “substrate [+]”.

As to `C[C@H](CCC(=O)O)[C@H]1CC[C@H]2[C@@H]3CC[C@@H]4C[C@H](O)CC[C@]4(C)[C@H]3C[C@H](O)[C@]12C` [DEOXYCHOLIC ACID], the Activity entry in series [4] and in [5] was “is not a substrate [-]” each time.

Turning to `C[C@H](CCC(=O)O)[C@H]1CC[C@H]2[C@@H]3CC[C@@H]4C[C@H](O)CC[C@]4(C)[C@H]3C[C@@H](O)[C@]12C` [LAGODEOXYCHOLATE], the Activity entry in series [6] and in series [7] was “is not a substrate [-]” throughout.

With `C[C@H](CCC(=O)NCC(=O)O)[C@H]1CC[C@H]2[C@@H]3[C@H](O)C[C@@H]4C[C@H](O)CC[C@]4(C)[C@H]3CC[C@]12C` [GLYCOCHENODEOXYCHOLATE], the Activity entry in [8] was “is not a substrate [-]”.

As for `CC(C)CCC[C@@H](C)C1CC[C@H]2[C@@H]3[C@H](O)C[C@]4(C(=O)O)C[C@H](O)CC[C@]4(C)[C@H]3C[C@H](O)[C@]12C` (some centres not stated) [TRIHYDROXYCOPROSTANOIC ACID], in series [9], the Activity result is “is not a substrate [-]”.

Consider `C[C@H](CCC(=O)NCCS(=O)(=O)O)[C@H]1CC[C@H]2[C@@H]3[C@H](O)C[C@@H]4C[C@H](O)CC[C@]4(C)[C@H]3CC[C@]12C` [TAUROCHENODEOXYCHOLATE], for which the Activity entry in [10] is “substrate [+]”.

As to `C[C@H](CCC(=O)NCCS(=O)(=O)O)[C@H]1CC[C@H]2[C@@H]3C[C@@H](O)[C@@H]4C[C@H](O)CC[C@]4(C)[C@H]3CC[C@]12C` [TAUROMUROCHOLATE], the Activity entry in [11] and in series [12] was “substrate [+]” each time.

In the case of `C[C@H](CCC(=O)NCC(=O)O)[C@H]1CC[C@H]2[C@@H]3[C@@H](O)C[C@@H]4C[C@H](O)CC[C@]4(C)[C@H]3CC[C@]12C` [GLYCOURSODEOXYCHOLIC ACID], the Activity entry in [13] is “substrate [+]”.

`C[C@H](CCC(=O)NCCS(=O)(=O)O)[C@H]1CC[C@H]2[C@@H]3[C@@H](O)C[C@@H]4C[C@H](O)CC[C@]4(C)[C@H]3CC[C@]12C` [TAURURSODIOL]: the Activity entry in series [14] is “substrate [+]”.

As to `C[C@H](CC(=O)NCCS(=O)(=O)O)[C@H]1CC[C@H]2[C@@H]3[C@H](O)C[C@@H]4C[C@H](O)CC[C@]4(C)[C@H]3C[C@H](O)[C@]12C`, the Activity entry in series [15] is “substrate [+]”.

As to `C[C@H](CCC(=O)NCC(=O)O)[C@H]1CC[C@H]2[C@@H]3[C@H](O)C[C@@H]4C[C@H](O)CC[C@]4(C)[C@H]3C[C@H](O)[C@]12C` [GLYCOCHOLIC ACID], the Activity entry in series [16], in [17] and in series [18] was “substrate [+]” in each case.

As for `CC(CCC[C@@H](C)C1CC[C@H]2[C@@H]3[C@H](O)C[C@]4(C(=O)O)C[C@H](O)CC[C@]4(C)[C@H]3C[C@H](O)[C@]12C)C(=O)NCCS(=O)(=O)O` (some centres not stated) [TAUROTRIHYDROXYCOPROSTANOIC ACID], the Activity result in [19] was “substrate [+]”.

`C[C@H](CCC(=O)NCCS(=O)(=O)O)[C@H]1CC[C@H]2[C@@H]3CC[C@H]4C[C@H](O)CC[C@]4(C)[C@H]3C[C@@H](O)[C@]12C` [TAUROLAGODEOXYCHOLATE]: the Activity entry in series [20] and in series [21] was “substrate [+]” each time.

As to `C[C@H](CCC(=O)O)[C@H]1CC[C@H]2[C@@H]3C[C@H](O)[C@@H]4C[C@H](O)CC[C@]4(C)[C@H]3CC[C@]12C` [HYODEOXYCHOLIC_ACID], in series [22], the Activity entry is “is not a substrate [-]”.

Consider `C[C@H](CC(=O)NCC(=O)O)[C@H]1CC[C@H]2[C@@H]3[C@H](O)C[C@@H]4C[C@H](O)CC[C@]4(C)[C@H]3C[C@H](O)[C@]12C`, for which the Activity entry in series [23] was “is not a substrate [-]”.

On to `C[C@H](CCC(=O)O)[C@H]1CC[C@H]2[C@@H]3[C@H](O)C[C@@H]4C[C@H](O)CC[C@]4(C)[C@H]3CC[C@]12C` [CHENODIOL], for which, in series [24], the Activity entry was “is not a substrate [-]”.

As for `C[C@H](CCC(=O)O)[C@H]1CC[C@H]2[C@@H]3[C@@H](O)C[C@@H]4C[C@H](O)CC[C@]4(C)[C@H]3CC[C@]12C` [URSODIOL], the Activity entry in [25] is “is not a substrate [-]”.

Regarding `C[C@H](CCC(=O)O)C1CC[C@H]2[C@@H]3C(O)C(O)C4C[C@H](O)CC[C@]4(C)[C@H]3CC[C@]12C` (some centres not stated) [MURICHOLATE], the Activity result in [26] and in series [27] was “substrate [+]” throughout.

Source of the values: ChEMBL document CHEMBL2074029, “Substrate specificities of rat oatp1 and ntcp: implications for hepatic organic anion uptake” (Am J Physiol Gastrointest Liver Physiol, 2003).
